Measured values as given in the CheMixHub drug solubility set.

Assay: xn = mol fraction of the nth substance listed, in the solute-free solvent

Cc1c(Br)cccc1C(=O)O + C1CCOC1 + CCOC(C)=O
solubility (g/100 g solution)
Settings | x2 = 0.161 | x2 = 0.318 | x2 = 0.471 | x2 = 0.62 | x2 = 0.765 | x2 = 0.907
278.15 K | 11.6 | 16.7 | 21.6 | 26.2 | 30 | 35
283.15 K | 12.9 | 18.1 | 23.4 | 28.1 | 32 | 37.2
288.15 K | 14.2 | 19.7 | 24.9 | 29.9 | 33.8 | 39.1
293.15 K | 15.4 | 21.3 | 26.6 | 31.7 | 35.6 | 41.2
298.15 K | 16.9 | 22.7 | 28.2 | 33.4 | 37.3 | 43
303.15 K | 18.3 | 24.4 | 30 | 35.3 | 39 | 44.9
308.15 K | 19.8 | 26 | 31.6 | 36.9 | 40.6 | 46.5
313.15 K | 21.6 | 27.6 | 33.3 | 38.6 | 42.1 | 48.1
318.15 K | 23.4 | 29.4 | 35.1 | 40.2 | 43.6 | 49.6
323.15 K | 25.3 | 31.3 | 36.7 | 41.8 | 44.9 | 51.1
328.15 K | 27.6 | 33.3 | 38.5 | 43.6 | 46.2 | 52.5

Nc1ccc(Oc2ccc(N)cc2)cc1 + CS(C)=O + CCO
solubility (g/100 g solution)
Settings | 293.15 K | 298.15 K | 303.15 K | 308.15 K | 313.15 K | 318.15 K | 323.15 K | 328.15 K | 333.15 K
x2 = 0.06154 | 0.705 | 0.952 | 1.2 | 1.28 | 1.56 | 1.81 | 2.13 | 2.45 | 2.97
x2 = 0.1286 | 1.54 | 1.73 | 2.16 | 2.39 | 2.54 | 3.27 | 3.57 | 4.14 | 4.81
x2 = 0.2019 | 2.84 | 3.16 | 3.74 | 4.14 | 4.64 | 5.35 | 5.87 | 6.46 | 7.63
x2 = 0.2824 | 5.08 | 5.51 | 6.34 | 6.77 | 7.36 | 8.3 | 9.1 | 10.2 | 11.8
x2 = 0.3711 | 8.32 | 8.84 | 9.8 | 10.4 | 11.4 | 12.3 | 13.3 | 14.7 | 16.3
x2 = 0.4696 | 12.3 | 13.1 | 14.1 | 15 | 16 | 17.2 | 18.2 | 19.7 | 21.4
x2 = 0.5793 | 17 | 18.3 | 19.1 | 20.1 | 21 | 22.4 | 23.4 | 24.9 | 26.6
x2 = 0.7024 | 22 | 23.1 | 24 | 24.9 | 25.9 | 26.9 | 28.1 | 29.7 | 31.3
x2 = 0.8416 | 26.8 | 27.7 | 28.6 | 29.6 | 30.2 | 31.6 | 32.7 | 34.1 | 35.7
